According to patent US10434181B2, “Oligomer-containing benzamide-based compounds” (Nektar Therapeutics, priority 2012, dated 2019):

Experiments:
[1] = tested on: Sprague-Dawley rat hepatocytes; assay: MetID determination in rat hepatocytes; format: in vitro ADME
Protocol: (§1) Cryopreserved human and Sprague-Dawley rat hepatocytes were thawed in a 37° C. water bath. […] Samples were obtained from separate plates for each time point during the incubation. At each sampling time, the plates were removed from the incubator, quenched by adding 100 μL cold acetonitrile, and placed in an ice bath until centrifugation at 4,000 rpm for 30 minutes at 4° C. Supernatants were stored at or below −70° C. until LC-MS/MS analysis could be conducted. The liquid chromatography system used was Agilent 1100 Autosampler, Binary Pump, DAD and Column Enclosure. Tandem mass spectrometry was conducted using a Thermo DECA XP MAX Ion Trap Mass Spectrometer. The ion source was Electrospray (+) and the LC column used was a Varian, Polaris 5 C18-A (250×2.1 mm, 5 micron) column.
(§2) Metabolic pathways of metoclopramide and conjugates were determined in rat and human hepatocytes. N-dealkylation was the major metabolic pathway for metoclopramide in rats, and metabolism in human hepatocytes was minimal. […] FIG. 2 and FIG. 3 show the metabolic pathway of for mPEG1-N-metoclopramide and mPEG4-N-metoclopramide, respectively. […] In this figure, different metabolites for each conjugate are denoted with the “M” and correspond to the designation provided in the figure for a given conjugate. For example, metabolite M1 for mPEG1-N-metoclopramide in Table 6 corresponds to M1 in FIG. 2, metabolite M2 for mPEG4-N-metoclopramide in Table 6 corresponds to M2 in FIG. 3 and metabolite M3 mPEG8-N-metoclopramide in Table 6 corresponds to M3 in FIG. 4.

[2] = tested on: human hepatocytes; assay: MetID determination in human hepatocytes; format: in vitro ADME
Protocol: as §1, §2

[3] = incubation of 10 μM mPEG8-N-metoclopramide, parent and its metabolites M (FIG. 4)
[4] = incubation of 10 μM mPEG4-N-metoclopramide, parent and its metabolites M (FIG. 3)

Row | % of Total Metabolism, Rat Hep 1 hr [1, 3] | % of Total Metabolism, Rat Hep 4 hr [1, 3] | % of Total Metabolism, Human Hep 1 hr [2, 3] | % of Total Metabolism, Human Hep 4 hr [2, 3] | % of Total Metabolism, Rat Hep 1 hr [1, 4] | % of Total Metabolism, Rat Hep 4 hr [1, 4] | % of Total Metabolism, Human Hep 4 hr [2, 4] [%] | SMILES
1 | trace | trace | trace | trace |  |  |  | CCN(CCNC(=O)c1cc(Cl)c(N)cc1OC)CCOCCOCCOCCOCCOCCOCCOCCO [M17]
2 | Trace | 1.6% | trace | trace | 8.8% | 24.8% | 1.9 | CCN(CCNC(=O)c1cc(Cl)c(N)cc1OC)CCOCCOCCOCCO [M9]
3 | trace | trace | trace | trace |  |  |  | CCN(CCNC(=O)c1cc(Cl)c(N)cc1OC)CCOCCOCCOCCOCCOCCOCCO [M16]
4 |  | trace |  |  |  |  |  | CCN(CCO)CCNC(=O)c1cc(Cl)c(N)cc1OC [M10]
5 | Trace | 0.7% |  | trace |  |  |  | CCN(CCNC(=O)c1cc(Cl)c(N)cc1OC)CCOCCOCCO [M12]
6 | 1.3% | 2.5% | trace | trace | trace | 1.5% |  | CCN(CCNC(=O)c1cc(Cl)c(N)cc1OC)CCOCCOCCO [M8]
7 | 1% | 2.2% |  |  | trace | trace |  | CCN(CCO)CCNC(=O)c1cc(Cl)c(N)cc1OC [M6]
8 | 3.0% | 12.6% |  | 2.7% |  |  |  | CCN(CCNC(=O)c1cc(Cl)c(N)cc1OC)CCOCCOCCOCCO [M13]
9 | Trace | 3.5% |  |  |  |  |  | CCN(CCNC(=O)c1cc(Cl)c(N)cc1OC)CCOCCO [M11]
10 | 1.2% | 2.2% | trace | trace | 1.7% | 1.2% |  | CCN(CCNC(=O)c1cc(Cl)c(N)cc1OC)CCOCCO [M7]
11 | Trace | 1% | trace | trace |  |  |  | CCN(CCNC(=O)c1cc(Cl)c(N)cc1OC)CCOCCOCCOCCOCCOCCO [M15]
12 | Trace | 2% | trace | trace |  |  |  | CCN(CCNC(=O)c1cc(Cl)c(N)cc1OC)CCOCCOCCOCCOCCO [M14]
